According to US8410309B2, “Phenoxy carboxylic acid compounds and compositions for delivering active agents” (Emisphere Technologies, Inc., priority 1999, dated 2013):
Several values for one entry are separate records, joined by “and”; a condition that tells them apart may be missing. Identical values can stand only once. Like-named read-outs stand apart in the source and are kept apart here. Blank lines part the entries; values can stand above or below the compound they belong to.

Key:
[1] = rat, in vivo, po, 150 mg/kg
Protocol: (§2) Oral dosing (PO) compositions of a delivery agent compound and salmon calcitonin (sCT) in deionized water were prepared as described in Table 2 below. […] Either the sodium salt of the compound was used or the free acid was converted to the sodium salt by stirring the resultant solution and adding one equivalent of sodium hydroxide (1.0 N) and diluting with water. The solution was vortexed, then heated (about 37° C.) and sonicated. The pH was adjusted to about 7 (about 6.5 to 8.5) with NaOH or HCl. 90 μg sCT from a sCT stock solution (2 mg/ml made by adding 10001 pH 4 phosphate buffer to sCT and allowing it to go into solution by sitting for about 10-20 minutes and periodically gently inverting) was added to the solution.
(§3) The typical dosing and sampling protocols were as follows. Male Sprague-Dawley rats weighing between 200-250 g were fasted for 24 hours and administered ketamine (44 mg/kg) and chlorpromazine (1.5 mg/kg) 15 minutes prior to dosing and again as needed to maintain anesthesia. A dosing group of five animals was administered one of the dosing solutions. For oral dosing, an 11 cm Rusch 8 French catheter was adapted to a 1 ml syringe with a pipette tip. The syringe was filled with dosing solution by drawing the solution through the catheter, which was then wiped dry. The catheter was placed down the esophagus leaving 1 cm of tubing past the incisors. Solution was administered by pressing the syringe plunger.
(§4) Blood samples were collected serially from the tail artery, typically at time=0, 10, 20, 30, 60 and 90 minutes. […] Numbers were adjusted according to baseline values obtained at time=0. The results from the animals in each dosing group were averaged for each time point.

[2] = Heparin oral/intracolonic delivery, clotting time by activated partial thromboplastin time (APTT); assay type: in vivo, Sprague-Dawley rats; conditions: rats, baseline about 20 seconds
Method in brief: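 Heparin sodium with a delivery agent in 25% aqueous propylene glycol, pH about 7, was dosed by oral gavage or intracolonically. Citrated cardiac blood was taken under ketamine (88 mg/kg) at 0.25, 0.5, 1.0 and 1.5 h after dosing. Absorption was read as a rise in APTT clotting time.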

[3] = Insulin pulmonary delivery, serum insulin by ELISA, ratio to insulin-alone control; assay type: in vivo, Sprague-Dawley rats; conditions: Table 9 pulmonary delivery, rats; volume 1 ml/kg, delivery agent compound 3 mg/kg, insulin 100 mg/kg (so in the source)
Protocol: Dosing compositions of delivery agent compound and human insulin in water were prepared. Typically, to 1.5 mg of delivery agent compound was added deionized water to bring the volume to 1.0 ml, and the solution was vortexed. […] The pH was adjusted to between about 7.0 to 8.5 with NaOH or HCl. […] The final delivery agent compound dose, insulin dose and volume dose amounts are listed below in Table 9.
The typical dosing and sampling protocols were as follows. […] A control group of five animals was dosed insulin alone. A tracheal instillator for rodents, equipped with light (available from Penn Century, Inc., Pittsburgh, Pa.) was filled with dosing solution and inserted down the throat until the needle went into the trachea (confirmed visually). The dosing solution was administered by pressing the plunger.
Blood samples from each animal were collected serially from the tail artery, typically at 5, 15, 30, 60 and 120 minutes after dosing. […] The ratio of the area under the curve (AUC) for the test group versus that of the control group is reported below. The ratio of the maximum serum insulin concentration (Cmax) for the test group versus that of the control group is also reported below.

[4] = Interferon oral delivery, serum IFN by immunoassay; assay type: in vivo, Sprague-Dawley rats; conditions: rats, delivery agent compound 200 mg/kg, IFN 1 mg/kg, 1 ml/kg
Protocol: Dosing solutions of delivery agent compound and human interferon (IFN) were prepared in deionized water. […] This mixture was vortexed and placed in a sonicator (about 37° C.). The pH was adjusted to about 7.0 to 8.5 with aqueous NaOH. The mixture was vortexed to produce a uniform suspension or solution, also using sonication and heat if necessary.
(§1) The typical dosing and sampling protocols were as follows.
Serum IFN concentrations were quantified using Cytoscreen Immunoassay Kit for human IFN-alpha (catalog # KHC4012 from Biosource International, Camarillo, Calif.). Previous studies indicated baseline values of about zero.

[5] = Parathyroid hormone (PTH 1-34) oral/intracolonic delivery, serum PTH by radioimmunoassay; conditions: rats, oral (PO); delivery agent compound dose 100 mg/kg, PTH dose 200 μg/kg, volume dose 1 ml/kg
Protocol: Oral gavage (PO) and/or intracolonic (IC) dosing solutions of delivery agent compound and human parathyroid hormone residues 1-34 (PTH) in deionized water were prepared. A solution of the compound was made either with the sodium salt of the delivery agent compound or by converting the free acid to its sodium salt.
The typical dosing and sampling protocols were as follows. Male Sprague-Dawley rats weighing between 200-250 g were fasted for 24 hours and administered ketamine (44 mg/kg) and chlorpromazine (1.5 mg/kg) 15 minutes prior to dosing and again as needed to maintain anesthesia. A dosing group of five animals was administered one of the dosing solutions. For oral gavage (PO), an 11 cm Rusch 8 French catheter was adapted to a 1 ml syringe with a pipette tip. The syringe was filled with dosing solution by drawing the solution through the catheter, which was then wiped dry. The catheter was placed down the esophagus leaving 1 cm of tubing past the incisors. The dosing solution was administered by pressing the syringe plunger. For intracolonic (IC) dosing, a 7.5 cm Rusch catheter tube (French 8 or 6) was adapted to a syringe with an Eppendorf pipette tip. The syringe was filled with the dosing solution by drawing the solution through the catheter tube. The catheter tube was wiped dry. K-Y jelly was applied to the tip, avoiding contact with the eye of the tube, and the tube was inserted into the colon through the anus until the tube was no longer visible. The dosing solution was injected by pressing the syringe plunger, and the tube was removed.
Previous studies indicated baseline values of about zero. Results from the animals in each group were averaged for each time point.

[6] = Low molecular weight heparin (LMWH) oral/intracolonic delivery, plasma LMWH by anti-Factor Xa assay; assay type: in vivo, Sprague-Dawley rats; conditions: rats
Method in brief: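 LMWH (parnaparin) plus delivery agent in 25% aqueous propylene glycol, pH about 7, given orally or intracolonically. Citrated blood drawn by cardiac puncture under ketamine (88 mg/kg), typically at 0.5–4.0 h post-dose. Plasma LMWH measured by chromogenic anti-Factor Xa assay; peak of mean plasma concentrations reported.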

[7] = Daptomycin oral delivery, plasma daptomycin by HPLC; assay type: in vivo, Sprague-Dawley rats; conditions: rats, delivery agent compound dose 200 mg/kg, daptomycin dose 50 mg/kg, volume dose 1 mL/kg
Protocol: Dosing solutions containing a delivery agent compound and daptomycin (Cubist Pharmaceuticals, Cambridge, Mass.) were prepared in 0.9% normal saline. […] This mixture was vortexed and placed in a sonicator (about 37° C.). The pH was adjusted to about 7.0-7.5 with aqueous HCl or NaOH. […] The mixture was vortexed to produce a uniform solution, also using sonication if necessary. The delivery agent compound solution was mixed with daptomycin from a stock solution (200 mg daptomycin/mL in 0.9% normal saline and the pH adjusted, if necessary, to between 6.0-7.0 with NaOH or HCl). The stock solution was stored frozen (−20° C.) wrapped in foil, then thawed and warmed gradually to about 25° C. before using. The delivery agent-daptomycin mixture was vortexed at low speed to produce a uniform solution. The pH was adjusted to about 7.0-7.5 with aqueous NaOH. The solution was then diluted with 0.9% normal saline to the desired volume (usually 2.0 ml) and concentration and stored wrapped in foil before use.
as §1
Heparinized rat blood samples were collected via the ventral tail artery, typically at 0.25, 0.5, 0.75, 1.0, 2.0, and 4.0 hours after dosing, and stored on ice. Blood samples were then spun (centrifuged) at 11,500 rpm for 4 minutes at 4° C. to obtain the plasma (supernatant), which was stored at −70° C. The plasma daptomycin concentrations were measured by isocratic reversed phase HPLC, keeping samples at 4° C. during analysis. Blank plasma studies show baseline values of zero.
Daptomycin blood concentrations results from the individual animals in each dosage group were averaged for each time point.

[8] = Insulin oral delivery, serum human insulin by ELISA; conditions: rats
[9] = Salmon calcitonin (sCT) oral delivery, serum sCT by EIA; conditions: rats, delivery agent compound dose 50 mg/kg, sCT dose 100 μg/kg
Protocol: as §2, §3, §4

[10] = IC (intracolonic), delivery agent compound 50 mg/kg, heparin 25 mg/kg, volume dose 1 ml
[11] = IC, delivery agent compound 50 mg/kg, LMWH 750 IU/kg, 1 ml/kg, 50 mg/kg

SMILES: O=C(O)COc1ccccc1O [Compound 3]
- Mean Peak Serum sCT (pg/ml ± SD) (SE) [1]: 0 ± 81 pg/mL
- Mean Peak APTT ± SD [2, 10]: 16.046 ± 0.481 s and 16.984 ± 1.45 s

- melting point: 60 to 64 °C
- Cmax (serum insulin) [3]: 130.9724 μU/ml
SMILES: O=C(O)CCCCCCCOc1ccccc1O [Compound 7, 8-(2-hydroxyphenoxy)octanoic acid]
- Mean Peak APTT ± SD [2, 10]: 130.5 ± 42.6 s and 92 ± 40.3 s and 99.4 ± 25.5 s

- Mean Peak Serum [IFN] ± SD [4]: 1.6362 ± 1.68 ng/mL
- Mean Peak Serum [PTH] (pg/mL) ± SD [5]: 276 ± 252 pg/mL
- Mean Peak Plasma LMWH Concentration ± SD ([6]; IC, delivery agent compound 10 mg/kg, LMWH 750 IU/kg, 1 ml/kg): 0.2 ± 0.077 IU/ml
- Mean Peak Plasma LMWH Concentration ± SD ([6]; IC, delivery agent compound 50 mg/kg, LMWH 751 IU/kg, 1 ml/kg): 1.5 ± 0.23 IU/ml
- Mean Peak Plasma LMWH Concentration ± SD ([6]; PO, delivery agent compound 300 mg/kg, LMWH 3000 IU/kg, 3 ml/kg): 0.137 ± 0.18 IU/ml
- Mean plasma Cmax [daptomycin] ± SD [7]: 16.11 ± 17.58 µg/mL
- Mean Peak Serum [INS] ± SD ([8]; delivery agent compound 100 mg/kg, insulin 3 mg/kg, 0.5 ml/kg): 205.4 ± 333.4 μU/ml
- Mean Peak Serum sCT (pg/ml ± SD) (SE) ([9]; dose volume 0.5 (ml)): 445 ± 221 pg/mL
- Mean Peak Serum sCT (pg/ml ± SD) (SE) ([9]; dose volume 1 (ml)): 316 ± 476 pg/mL
SMILES: CC(=O)c1ccccc1OCCCCCCCC(=O)O [Compound 12]
- Mean Peak Plasma LMWH Concentration ± SD [6, 11]: 1.7 ± 0.308 IU/ml and 1.74 ± 0.304 IU/ml and 2.012 ± 0.124 IU/ml and 1.498 ± 0.462 IU/ml
- Mean Peak APTT ± SD ([2]; PO (oral gavage), delivery agent compound 300 mg/kg, heparin 100 mg/kg, volume dose 3 ml): 201.4 ± 45.7 s

SMILES: NC(=O)c1ccccc1OCCCCCCCC(=O)O [Compound 30, 8-(2-carboxamidophenoxy)caprylic acid]
- Mean Peak Serum [PTH] (pg/mL) ± SD [5]: 78 ± 71 pg/mL
- Mean Peak Plasma LMWH Concentration ± SD [6, 11]: 0.162 ± 0.094 IU/ml and 0.288 ± 0.152 IU/ml
- Mean plasma Cmax [daptomycin] ± SD [7]: 3.06 ± 0.78 µg/mL
- Mean Peak APTT ± SD [2, 10]: 50.9 ± 20.5 s
- Mean Peak Serum [INS] ± SD ([8]; delivery agent compound 200 mg/kg, insulin 0.5 mg/kg, 1 ml/kg): 21.88 ± 13.4 μU/ml
